The NIST ThermoML archive (doi:10.1016/j.jct.2012.05.003)
Numbers after ± are expanded uncertainties.

Experiment: molar heat capacity at saturation pressure
Conditions: Vacuum adiabatic calorimetry

O=C1c2ccccc2-c2ccccc21 [9(9H)-fluorenone]
molar heat capacity [J/K/mol]
Conditions	Crystal	Liquid
4.566 K	0.46 ± 0.017	–
5 K	0.6 ± 0.025	–
5.528 K	0.77 ± 0.025	–
6.434 K	1.22 ± 0.042	–
7.474 K	1.88 ± 0.058	–
8.581 K	2.71 ± 0.083	–
9.685 K	3.71 ± 0.12	–
10 K	4.02 ± 0.042	–
10.85 K	4.87 ± 0.05	–
12.11 K	6.26 ± 0.058	–
13.44 K	7.86 ± 0.067	–
14.97 K	9.678 ± 0.075	–
16.65 K	11.82 ± 0.091	–
18.49 K	14.15 ± 0.1	–
20 K	16.01 ± 0.11	–
20.45 K	16.55 ± 0.11	–
22.62 K	19.26 ± 0.12	–
25.08 K	22.19 ± 0.14	–
27.79 K	25.34 ± 0.15	–
30 K	27.82 ± 0.075	–
30.74 K	28.64 ± 0.075	–
33.98 K	32.05 ± 0.083	–
37.55 K	35.61 ± 0.091	–
40 K	37.94 ± 0.091	–
41.59 K	39.4 ± 0.091	–
46.13 K	43.45 ± 0.1	–
50 K	46.83 ± 0.11	–
51.2 K	47.85 ± 0.11	–
56.87 K	52.2 ± 0.12	–
56.9 K	52.18 ± 0.12	–
60 K	54.38 ± 0.12	–
62.55 K	56.09 ± 0.12	–
62.62 K	56.16 ± 0.12	–
68.7 K	60.3 ± 0.13	–
70 K	61.14 ± 0.13	–
72.85 K	62.96 ± 0.13	–
75.63 K	64.74 ± 0.13	–
80 K	67.46 ± 0.14	–
83.16 K	69.38 ± 0.14	–
84.2 K	70.02 ± 0.15	–
90 K	73.43 ± 0.22	–
91.53 K	74.32 ± 0.22	–
92.55 K	74.86 ± 0.22	–
100 K	79.14 ± 0.22	–
100.6 K	79.46 ± 0.22	–
101.73 K	80.16 ± 0.22	–
109.97 K	84.81 ± 0.22	–
119.46 K	90.1 ± 0.22	–
120 K	90.41 ± 0.22	–
129.35 K	95.77 ± 0.23	–
139.36 K	101.53 ± 0.23	–
140 K	101.91 ± 0.23	–
149.34 K	107.42 ± 0.24	–
159.36 K	113.33 ± 0.25	–
160 K	113.73 ± 0.25	–
169.39 K	119.4 ± 0.26	–
179.42 K	125.52 ± 0.27	–
180 K	125.91 ± 0.27	–
189.44 K	131.93 ± 0.27	–
199.45 K	138.28 ± 0.27	–
200 K	138.65 ± 0.27	–
209.47 K	144.93 ± 0.28	–
219.38 K	151.48 ± 0.29	–
220 K	151.91 ± 0.29	–
229.4 K	158.17 ± 0.3	–
239.49 K	164.92 ± 0.31	–
240 K	165.3 ± 0.31	–
249.56 K	172.03 ± 0.32	–
259.56 K	178.91 ± 0.32	–
260 K	179.23 ± 0.32	–
269.56 K	185.84 ± 0.33	–
279.57 K	192.92 ± 0.34	–
280 K	193.1 ± 0.34	–
289.32 K	199.64 ± 0.35	–
296.08 K	204.14 ± 0.35	–
298.15 K	205.82 ± 0.36	–
299.29 K	206.68 ± 0.36	–
300 K	207.11 ± 0.36	–
305.5 K	210.87 ± 0.36	–
308.47 K	212.74 ± 0.36	–
309.21 K	213.37 ± 0.37	–
315.7 K	218.21 ± 0.37	–
316.59 K	218.89 ± 0.37	–
320 K	221.01 ± 0.37	–
324.75 K	224.49 ± 0.37	–
325.3 K	224.82 ± 0.37	–
332.95 K	230.04 ± 0.38	–
335.34 K	231.75 ± 0.38	–
340 K	235.18 ± 0.39	282.8 ± 0.44
340.05 K	–	282.82 ± 0.44
341.17 K	235.83 ± 0.39	–
345.34 K	238.85 ± 0.39	–
349.26 K	–	287 ± 0.45
349.41 K	242.52 ± 0.4	–
356.52 K	247.86 ± 0.4	290.4 ± 0.45
359.51 K	–	291.82 ± 0.46
360 K	–	291.97 ± 0.46
363.97 K	–	293.73 ± 0.46
364.32 K	–	293.78 ± 0.46
367.03 K	–	295.01 ± 0.46
373.93 K	–	298.26 ± 0.47
380 K	–	301.01 ± 0.47
386.08 K	–	303.75 ± 0.47
398.35 K	–	309.31 ± 0.47
400 K	–	310.04 ± 0.47
410.74 K	–	314.78 ± 0.48
420 K	–	318.92 ± 0.48
423.26 K	–	320.37 ± 0.49
435.5 K	–	325.69 ± 0.49
440 K	–	327.65 ± 0.5
447.89 K	–	331.01 ± 0.5
460 K	–	336.07 ± 0.51
460.14 K	–	336.12 ± 0.51
472.54 K	–	341.25 ± 0.52
477.16 K	–	343.14 ± 0.52
480 K	–	344.22 ± 0.52
487.83 K	–	347.32 ± 0.52
490.73 K	–	348.64 ± 0.52
499.62 K	–	352.16 ± 0.52
500 K	–	352.28 ± 0.52
505.44 K	–	354.68 ± 0.53
509.99 K	–	356.21 ± 0.53
518.82 K	–	359.99 ± 0.53
519.26 K	–	360.18 ± 0.53
520 K	–	360.47 ± 0.53
